Measurements reported in patent publication US20230085307A1, “PYRIDAZINONE COMPOUND AND HERBICIDE” (NISSAN CHEMICAL CORPORATION, priority 2019, published 2023).

system: southern crabgrass; test: Test Example 5: herbicidal effect by foliage application, plastic box (Table 20, symbol F); type: in vivo, southern crabgrass (Digitaria ciliaris); conditions: foliage application, 320 g/ha, evaluated three weeks after application
Summary of the method: (§1)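 Foliar spray test: emulsion formulation diluted in water to a set application rate, sprayed onto 14-day-old plants raised in diluvial soil at 25° C to 30° C under glass. Both herbicidal effect and crop effect rated visually three weeks later.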

SMILES	herbicidal effect on F: southern crabgrass (criteria 0-5)
COc1cc(F)ccc1-c1sc2ccc(C(C)=O)cc2c1-c1c(O)c(C)nn(C)c1=O [2-192]	4 (Herbicidal rate of 70% or more and less than 90%)

system: Italian ryegrass; test: Test Example 5: herbicidal effect by foliage application, plastic box (Table 20, symbol K); type: in vivo, Italian ryegrass (Lolium multiflorum); conditions: foliage application, 320 g/ha, evaluated three weeks after application
Summary of the method: as §1

SMILES	herbicidal effect on K: Italian ryegrass (criteria 0-5)
COc1cc(F)ccc1-c1sc2ccc(C(C)=O)cc2c1-c1c(O)c(C)nn(C)c1=O [2-192]	0 (Herbicidal rate of 5% or less (almost no effect))

system: redroot pigweed; test: Test Example 4: herbicidal effect by soil treatment (Table 19, symbol N); type: in vivo, redroot pigweed (Amaranthus retroflexus); conditions: amount of applied herbicide 320 g/ha
Summary of the method: (§2)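 Step 1: sow seeds in sterilized diluvial soil, cover ~1.5 cm. Step 2: spray diluted emulsion onto soil surface at predetermined rate. Step 3: greenhouse, 25–30° C, three weeks. Step 4: grade effect on each plant by earlier criteria.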

SMILES	N: redroot pigweed, herbicidal effect rating
COc1cc(F)ccc1-c1sc2ccc(C(C)=O)cc2c1-c1c(O)c(C)nn(C)c1=O [2-192]	4 (Herbicidal rate of 70% or more and less than 90%)

system: lambsquarters; test: Test Example 4: herbicidal effect by soil treatment (Table 19, symbol O); type: in vivo, lambsquarters (Chenopodium album); conditions: amount of applied herbicide 320 g/ha
Summary of the method: as §2

SMILES	O: lambsquarters, herbicidal effect rating
COc1cc(F)ccc1-c1sc2ccc(C(C)=O)cc2c1-c1c(O)c(C)nn(C)c1=O [2-192]	4 (Herbicidal rate of 70% or more and less than 90%)

system: velvetleaf; test: Test Example 4: herbicidal effect by soil treatment (Table 19, symbol M); type: in vivo, velvetleaf (Abutilon theophrasti); conditions: amount of applied herbicide 320 g/ha
Summary of the method: as §2

SMILES	M: velvetleaf, herbicidal effect rating
COc1cc(F)ccc1-c1sc2ccc(C(C)=O)cc2c1-c1c(O)c(C)nn(C)c1=O [2-192]	0 (Herbicidal rate of 5% or less (almost no effect))

system: wild oat; test: Test Example 5: herbicidal effect by foliage application, plastic box (Table 20, symbol I); type: in vivo, wild oat (Avena fatua); conditions: foliage application, 320 g/ha, evaluated three weeks after application
Summary of the method: as §1

SMILES	herbicidal effect on I: wild oat (criteria 0-5)
COc1cc(F)ccc1-c1sc2ccc(C(C)=O)cc2c1-c1c(O)c(C)nn(C)c1=O [2-192]	0 (Herbicidal rate of 5% or less (almost no effect))

system: wild oat; test: Test Example 4: herbicidal effect by soil treatment (Table 19, symbol I); type: in vivo, wild oat (Avena fatua); conditions: amount of applied herbicide 320 g/ha
Summary of the method: as §2

SMILES	I: wild oat, herbicidal effect rating
COc1cc(F)ccc1-c1sc2ccc(C(C)=O)cc2c1-c1c(O)c(C)nn(C)c1=O [2-192]	0 (Herbicidal rate of 5% or less (almost no effect))

system: blackgrass; test: Test Example 5: herbicidal effect by foliage application, plastic box (Table 20, symbol J); type: in vivo, blackgrass (Alopecurus myosuroides); conditions: foliage application, 320 g/ha, evaluated three weeks after application
Summary of the method: as §1

SMILES	herbicidal effect on J: blackgrass (criteria 0-5)
COc1cc(F)ccc1-c1sc2ccc(C(C)=O)cc2c1-c1c(O)c(C)nn(C)c1=O [2-192]	4 (Herbicidal rate of 70% or more and less than 90%)

system: velvetleaf; test: Test Example 5: herbicidal effect by foliage application, plastic box (Table 20, symbol M); type: in vivo, velvetleaf (Abutilon theophrasti); conditions: foliage application, 320 g/ha, evaluated three weeks after application
Summary of the method: as §1

SMILES	herbicidal effect on M: velvetleaf (criteria 0-5)
COc1cc(F)ccc1-c1sc2ccc(C(C)=O)cc2c1-c1c(O)c(C)nn(C)c1=O [2-192]	4 (Herbicidal rate of 70% or more and less than 90%)

system: chickweed; test: Test Example 4: herbicidal effect by soil treatment (Table 19, symbol P); type: in vivo, common chickweed (Stellaria media); conditions: amount of applied herbicide 320 g/ha
Summary of the method: as §2

SMILES	P: chickweed, herbicidal effect rating
COc1cc(F)ccc1-c1sc2ccc(C(C)=O)cc2c1-c1c(O)c(C)nn(C)c1=O [2-192]	0 (Herbicidal rate of 5% or less (almost no effect))

system: lambsquarters; test: Test Example 5: herbicidal effect by foliage application, plastic box (Table 20, symbol O); type: in vivo, lambsquarters (Chenopodium album); conditions: foliage application, 320 g/ha, evaluated three weeks after application
Summary of the method: as §1

SMILES	herbicidal effect on O: lambsquarters (criteria 0-5)
COc1cc(F)ccc1-c1sc2ccc(C(C)=O)cc2c1-c1c(O)c(C)nn(C)c1=O [2-192]	3 (Herbicidal rate of 40% or more and less than 70%)

system: Italian ryegrass; test: Test Example 4: herbicidal effect by soil treatment (Table 19, symbol K); type: in vivo, Italian ryegrass (Lolium multiflorum); conditions: amount of applied herbicide 320 g/ha
Summary of the method: as §2

SMILES	K: Italian ryegrass, herbicidal effect rating
COc1cc(F)ccc1-c1sc2ccc(C(C)=O)cc2c1-c1c(O)c(C)nn(C)c1=O [2-192]	0 (Herbicidal rate of 5% or less (almost no effect))

system: barnyard grass; test: Test Example 5: herbicidal effect by foliage application, plastic box (Table 20, symbol H); type: in vivo, barnyard grass (Echinochloa crus-galli); conditions: foliage application, 320 g/ha, evaluated three weeks after application
Summary of the method: as §1

SMILES	herbicidal effect on H: barnyard grass (criteria 0-5)
COc1cc(F)ccc1-c1sc2ccc(C(C)=O)cc2c1-c1c(O)c(C)nn(C)c1=O [2-192]	2 (Herbicidal rate of 20% or more and less than 40%)

system: persian speedwell; test: Test Example 5: herbicidal effect by foliage application, plastic box (Table 20, symbol R); type: in vivo, Persian speedwell (Veronica persica); conditions: foliage application, 320 g/ha, evaluated three weeks after application
Summary of the method: as §1

SMILES	herbicidal effect on R: persian speedwell (criteria 0-5)
COc1cc(F)ccc1-c1sc2ccc(C(C)=O)cc2c1-c1c(O)c(C)nn(C)c1=O [2-192]	5 (Herbicidal rate of 90% or more (almost completely withered))

system: southern crabgrass; test: Test Example 4: herbicidal effect by soil treatment (Table 19, symbol F); type: in vivo, southern crabgrass (Digitaria ciliaris); conditions: amount of applied herbicide 320 g/ha
Summary of the method: as §2

SMILES	F: southern crabgrass, herbicidal effect rating
COc1cc(F)ccc1-c1sc2ccc(C(C)=O)cc2c1-c1c(O)c(C)nn(C)c1=O [2-192]	0 (Herbicidal rate of 5% or less (almost no effect))

system: persian speedwell; test: Test Example 4: herbicidal effect by soil treatment (Table 19, symbol R); type: in vivo, Persian speedwell (Veronica persica); conditions: amount of applied herbicide 320 g/ha
Summary of the method: as §2

SMILES	R: persian speedwell, herbicidal effect rating
COc1cc(F)ccc1-c1sc2ccc(C(C)=O)cc2c1-c1c(O)c(C)nn(C)c1=O [2-192]	0 (Herbicidal rate of 5% or less (almost no effect))

system: windgrass; test: Test Example 5: herbicidal effect by foliage application, plastic box (Table 20, symbol L); type: in vivo, windgrass (Apera spica-venti); conditions: foliage application, 320 g/ha, evaluated three weeks after application
Summary of the method: as §1

SMILES	herbicidal effect on L: windgrass (criteria 0-5)
COc1cc(F)ccc1-c1sc2ccc(C(C)=O)cc2c1-c1c(O)c(C)nn(C)c1=O [2-192]	0 (Herbicidal rate of 5% or less (almost no effect))

system: barnyard grass; test: Test Example 4: herbicidal effect by soil treatment (Table 19, symbol H); type: in vivo, barnyard grass (Echinochloa crus-galli); conditions: amount of applied herbicide 320 g/ha
Summary of the method: as §2

SMILES	H: barnyard grass, herbicidal effect rating
COc1cc(F)ccc1-c1sc2ccc(C(C)=O)cc2c1-c1c(O)c(C)nn(C)c1=O [2-192]	1 (Herbicidal rate of 5% or more and less than 20%)

system: blackgrass; test: Test Example 4: herbicidal effect by soil treatment (Table 19, symbol J); type: in vivo, blackgrass (Alopecurus myosuroides); conditions: amount of applied herbicide 320 g/ha
Summary of the method: as §2

SMILES	J: blackgrass, herbicidal effect rating
COc1cc(F)ccc1-c1sc2ccc(C(C)=O)cc2c1-c1c(O)c(C)nn(C)c1=O [2-192]	0 (Herbicidal rate of 5% or less (almost no effect))

system: redroot pigweed; test: Test Example 5: herbicidal effect by foliage application, plastic box (Table 20, symbol N); type: in vivo, redroot pigweed (Amaranthus retroflexus); conditions: foliage application, 320 g/ha, evaluated three weeks after application
Summary of the method: as §1

SMILES	herbicidal effect on N: redroot pigweed (criteria 0-5)
COc1cc(F)ccc1-c1sc2ccc(C(C)=O)cc2c1-c1c(O)c(C)nn(C)c1=O [2-192]	3 (Herbicidal rate of 40% or more and less than 70%)

system: rice flat sedge; test: Test Example 3: herbicidal effect by foliage application, Wagner pot (Table 18, symbol E); type: in vivo, rice flat sedge (Cyperus iria); conditions: amount of applied herbicide 320 g/ha
Summary of the method: (§3)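 Plants were sown in alluvial soil held under 0.1–0.5 cm standing water and grown 14 days in a greenhouse at 25–30 °C. An emulsifiable formulation, water-diluted to the set dose, was then sprayed onto the foliage, and effects were scored three weeks later using previously defined criteria.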

SMILES	herbicidal effect on E: rice flat sedge
COc1cc(F)ccc1-c1sc2ccc(C(C)=O)cc2c1-c1c(O)c(C)nn(C)c1=O [2-192]	2 (Herbicidal rate of 20% or more and less than 40%)

system: green foxtail; test: Test Example 5: herbicidal effect by foliage application, plastic box (Table 20, symbol G); type: in vivo, green foxtail (Setaria viridis); conditions: foliage application, 320 g/ha, evaluated three weeks after application
Summary of the method: as §1

SMILES	herbicidal effect on G: green foxtail (criteria 0-5)
COc1cc(F)ccc1-c1sc2ccc(C(C)=O)cc2c1-c1c(O)c(C)nn(C)c1=O [2-192]	4 (Herbicidal rate of 70% or more and less than 90%)

system: windgrass; test: Test Example 4: herbicidal effect by soil treatment (Table 19, symbol L); type: in vivo, windgrass (Apera spica-venti); conditions: amount of applied herbicide 320 g/ha
Summary of the method: as §2

SMILES	L: windgrass, herbicidal effect rating
COc1cc(F)ccc1-c1sc2ccc(C(C)=O)cc2c1-c1c(O)c(C)nn(C)c1=O [2-192]	0 (Herbicidal rate of 5% or less (almost no effect))

system: Chinese sprangletop; test: Test Example 3: herbicidal effect by foliage application, Wagner pot (Table 18, symbol D); type: in vivo, chinese sprangletop (Leptochloa chinensis); conditions: amount of applied herbicide 320 g/ha
Summary of the method: as §3

SMILES	herbicidal effect on D: Chinese sprangletop
COc1cc(F)ccc1-c1sc2ccc(C(C)=O)cc2c1-c1c(O)c(C)nn(C)c1=O [2-192]	2 (Herbicidal rate of 20% or more and less than 40%)

system: chickweed; test: Test Example 5: herbicidal effect by foliage application, plastic box (Table 20, symbol P); type: in vivo, common chickweed (Stellaria media); conditions: foliage application, 320 g/ha, evaluated three weeks after application
Summary of the method: as §1

SMILES	herbicidal effect on P: chickweed (criteria 0-5)
COc1cc(F)ccc1-c1sc2ccc(C(C)=O)cc2c1-c1c(O)c(C)nn(C)c1=O [2-192]	5 (Herbicidal rate of 90% or more (almost completely withered))

system: green foxtail; test: Test Example 4: herbicidal effect by soil treatment (Table 19, symbol G); type: in vivo, green foxtail (Setaria viridis); conditions: amount of applied herbicide 320 g/ha
Summary of the method: as §2

SMILES	G: green foxtail, herbicidal effect rating
COc1cc(F)ccc1-c1sc2ccc(C(C)=O)cc2c1-c1c(O)c(C)nn(C)c1=O [2-192]	3 (Herbicidal rate of 40% or more and less than 70%)

system: barnyard grass; test: Test Example 3: herbicidal effect by foliage application, Wagner pot (Table 18, symbol H); type: in vivo, barnyard grass (Echinochloa crus-galli); conditions: amount of applied herbicide 320 g/ha
Summary of the method: as §3

SMILES	herbicidal effect on H: barnyard grass
COc1cc(F)ccc1-c1sc2ccc(C(C)=O)cc2c1-c1c(O)c(C)nn(C)c1=O [2-192]	4 (Herbicidal rate of 70% or more and less than 90%)
